Results on five molecules are retold here after PMC10096376, “Insecticidal and Synergistic Potential of Three Monoterpenoids against the Yellow Fever Mosquito, Aedes aegypti (Diptera: Culicidae), and the House Fly, Musca domestica (Diptera: Muscidae)” (Molecules, 2023).

Where “and” joins values, the source holds several entries; their conditions need not be identical. Equal entries are not always repeated. Where two headings read alike, the source gives them in different places.

For series [1] the following is noted: animal and route not given; cited from earlier work.
The conditions of series [2]: cited from earlier work.
Series [3] relates to Aedes aegypti. In words: Co-toxicity assay with permethrin (topical). Conditions: for 1-h knockdown Co-Toxicity Factor / 24-h mortality Co-Toxicity Factor: >+20 potentiation, <−20 antagonism, −20 to +20 additive. The protocol: (§1) For Ae. aegypti, synergism assays were performed similar to the topical applications described previously, with the following modifications: 2 doses (2 µg/mosquito and 10 µg/mosquito) of each monoterpenoid were applied as synergists, similar to previous studies exploring the synergistic potential of natural products in combination with an intermediate dose-level of insecticide alone.
(§2) Mosquitoes were transferred to deli cups and kept at a controlled temperature and humidity (the same conditions as described for the topical application of insecticides and monoterpenoids alone). Again, a minimum of 3 separate rearing cohorts were used among replicates of each dose combination.
(§3) Dose responses were modeled via probit analysis, and their resulting estimates were obtained. […] A control correction option (OPTC command) was used to account for responses to the vehicle control treatments. Co-toxicity values were calculated by the method of [29]. A co-toxicity factor of >+20 signifies potentiation, <−20 antagonism, and −20 to +20 additive.

In series [4] the test system is Musca domestica. Conditions: for LD10 (95% CI) / LD50 (95% CI) / LD90 (95% CI): 24 h, adult females, susceptible strain.
For series [5], the system named is rat. Conditions: cited from earlier work.
In series [6] the target is acetylcholinesterase (Musca domestica, UniProt Q7YWJ9). In words: In vitro inhibition of acetylcholinesterase (Ellman), head homogenate. The series is classed as biochemical. The protocol:
(§4) Acetylcholinesterase inhibition was conducted on homogenates of whole-body Ae. aegypti and M. domestica heads using Ellman’s method. For Ae. aegypti, 10 whole female adults were placed in 2 mL microcentrifuge screw cap tubes with 3–5.2 mm zircon/silica beads and homogenized in 500 μL of sodium phosphate buffer (100 mM, pH 7.8) using a Precellys Evolution bead beater (Bertin Corp., Rockville, MD, USA) set to two 15-s pulses of 5600 rpm. Afterward, 500 μL of Triton X-100 buffer (100 mM sodium phosphate, pH 7.8, 0.6% Triton X-100) was added to each tube (final Triton X-100 concentration: 0.3%), inverted several times to mix up the sample, and then centrifuged at 10,000× g for 4 min at 4 °C. The supernatant was used as the enzyme source. The same process was carried out with M. domestica, except three heads were processed in a 1000:1000 μL sodium phosphate buffer and Triton X-100 buffer in the same manner as just described.
Concentration responses were conducted in the wells of a 96-well, clear, flat-bottomed plate. Inhibitor solutions of methomyl or monoterpenoids were first dissolved in DMSO (dimethyl sulfoxide) and then diluted in sodium phosphate buffer (100 mM, pH 7.8, DMSO concentration of 1%). A volume of 10 μL of the inhibitor solution was added to each well, along with 90 μL of sodium phosphate buffer, and finally 10 μL of homogenate. This was incubated on a plate shaker at 400 rpm for 10 min at room temperature. The final concentrations for methomyl were 100 μM, 10 μM, 1 μM, 100 nM, 10 nM, 1 nM, and 0 nM. For the monoterpenoids, the same range was used except the top concentration was 1 mM and the bottom non-zero concentration was 10 nM. The final concentration of DMSO in all wells was 0.09%.
After the 10-min incubation, 100 μL of Ellman’s reagent prepared in sodium phosphate buffer and each corresponding inhibitor concentration were added to the wells using a multichannel pipette.
as §3

Series [7] relates to Aedes aegypti. Conditions: for 1-h knockdown Co-Toxicity Factor / 24-h mortality Co-Toxicity Factor / 48-h mortality Co-Toxicity Factor: >+20 potentiation, <−20 antagonism, −20 to +20 additive. The protocol: as §1, §2, §3
In series [8] the test system is Aedes aegypti. Conditions: for LD10 (95% CI) / LD50 (95% CI) / LD90 (95% CI): 24 h, topical, adult females, susceptible strain.
For series [9], the system named is rat. Conditions: in vivo; cited from earlier work.
For series [10] the following is noted: under a mercury lamp; cited from earlier work.
The subject of series [11] is Musca domestica. The experiment in a line: Co-toxicity assay with permethrin (topical). The series is classed as in vivo. The protocol:
[…]. Each dose was formulated in a total volume of 1.5 mL of acetone. A dose of permethrin that produced approximately 50% mortality (18 ng) was used as the treatment. Female flies were sorted into groups of 20 per synergism assay and dosed as previously mentioned (i.e., the same way as in the topical toxicity assays). Flies were assessed for mortality at 24 h.

Series [12] relates to rabbit. Conditions: ref 32,33 (L-fenchone), 35,36 (Permethrin), 37 (Methomyl); cited from earlier work.
The target of series [13] is T1, acetylcholinesterase (Aedes aegypti, UniProt Q6A2E2).
T1 construct: The supernatant was used as the enzyme source; from tissue; host or cells: whole bodies of adult female Aedes aegypti, Orlando strain; Triton X-100 supernatant
In words: In vitro inhibition of acetylcholinesterase (Ellman), whole-body homogenate. The series is classed as biochemical. Conditions: Ae. aegypti preparation, corrected for total protein; read-out: IC50 (95% CI). The protocol:
as §4
Concentration responses were conducted in the wells of a 96-well, clear, flat-bottomed plate. Inhibitor solutions of methomyl or monoterpenoids were first dissolved in DMSO (dimethyl sulfoxide) and then diluted in sodium phosphate buffer (100 mM, pH 7.8, DMSO concentration of 1%). […]
Dose responses were modeled via probit analysis, and their resulting estimates were obtained. […] Co-toxicity values were calculated by the method of [29]. […]

[14] abbreviates: 10 μg synergist per Ae. aegypti.
The mark [15] stands for this setting: 10.2 μg PBO, 70 μg carvone, 190 μg menthone, 80 μg fenchone per fly.
Setting [16] is: near-sublethal synergist dose + permethrin, >+20 potentiation, <−20 antagonism, −20 to +20 additive.

T1 sequence (Q6A2E2 1-702): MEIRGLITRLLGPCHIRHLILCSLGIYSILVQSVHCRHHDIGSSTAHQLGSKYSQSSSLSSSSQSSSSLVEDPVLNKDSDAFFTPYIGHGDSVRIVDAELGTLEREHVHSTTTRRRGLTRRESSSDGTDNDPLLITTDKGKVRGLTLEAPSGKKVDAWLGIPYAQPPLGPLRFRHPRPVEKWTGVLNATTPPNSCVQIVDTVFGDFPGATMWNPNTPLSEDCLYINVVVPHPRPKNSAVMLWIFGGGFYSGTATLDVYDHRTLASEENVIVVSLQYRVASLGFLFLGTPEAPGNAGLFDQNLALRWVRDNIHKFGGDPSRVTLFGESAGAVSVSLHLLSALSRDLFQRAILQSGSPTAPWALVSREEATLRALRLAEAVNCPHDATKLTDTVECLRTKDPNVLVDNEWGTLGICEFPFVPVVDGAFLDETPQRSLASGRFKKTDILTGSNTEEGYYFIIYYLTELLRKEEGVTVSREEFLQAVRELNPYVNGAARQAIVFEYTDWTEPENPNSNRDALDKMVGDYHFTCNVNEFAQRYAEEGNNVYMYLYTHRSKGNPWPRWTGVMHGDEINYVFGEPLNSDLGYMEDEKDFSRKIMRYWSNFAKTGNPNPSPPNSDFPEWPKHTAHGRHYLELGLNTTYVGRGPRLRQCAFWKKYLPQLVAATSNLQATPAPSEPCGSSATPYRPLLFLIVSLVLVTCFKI
acetylcholinesterase (Musca domestica, UniProt Q7YWJ9), sequence (Q7YWJ9 81-660): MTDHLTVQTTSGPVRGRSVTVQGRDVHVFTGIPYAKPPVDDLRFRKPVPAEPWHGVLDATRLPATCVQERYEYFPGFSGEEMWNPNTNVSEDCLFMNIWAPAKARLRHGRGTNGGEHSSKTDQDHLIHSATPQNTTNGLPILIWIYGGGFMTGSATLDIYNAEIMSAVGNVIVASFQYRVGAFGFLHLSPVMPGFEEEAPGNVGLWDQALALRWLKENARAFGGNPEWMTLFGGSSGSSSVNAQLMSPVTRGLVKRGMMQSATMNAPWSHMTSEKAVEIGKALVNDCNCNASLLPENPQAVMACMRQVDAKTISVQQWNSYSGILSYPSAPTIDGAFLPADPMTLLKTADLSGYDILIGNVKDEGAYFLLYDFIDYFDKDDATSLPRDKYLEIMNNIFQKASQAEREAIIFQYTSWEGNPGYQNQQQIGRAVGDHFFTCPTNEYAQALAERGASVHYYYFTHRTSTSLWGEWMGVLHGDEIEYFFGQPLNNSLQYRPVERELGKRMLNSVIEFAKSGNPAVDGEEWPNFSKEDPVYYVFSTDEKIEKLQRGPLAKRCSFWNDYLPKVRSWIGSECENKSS

For `CC(C)=C1CC[C@@H](C)CC1=O` [pulegone], the LD50 in series [1] is 2000 to 3000 mg/kg.

For the molecule `C=C(C)[C@@H]1CC=C(C)C(=O)C1` [Carvone, L-carvone], the half-life is no more than 4.5 days in series [2] (acidic conditions) and 0.96 to 1.16 days in [10]. In addition, the “1-h% Mean Knockdown ± SEM, Mixture” value came out at 100 ± 0% in series [3] (2 μg synergist + permethrin 0.6 ng/mosquito); 100 ± 0% in series [3] (10 μg synergist + permethrin 0.6 ng/mosquito); 96.7 ± 3.3% in series [7] (2 μg synergist + methomyl 6 ng/mosquito); 100 ± 0% in series [7] (10 μg synergist + methomyl 6 ng/mosquito); 100 ± 0% in [11] (near-sublethal synergist dose (10.2 μg PBO, 70 μg carvone, 190 μg menthone, 80 μg fenchone) + permethrin 18 ng). The “1-h knockdown Co-Toxicity Factor” value is on record as 23.5 in series [3] (2 μg synergist + permethrin); 4 in series [3] (10 μg synergist + permethrin); 4.5 in series [7] (2 μg synergist + methomyl); −7 in series [7] (10 μg synergist + methomyl); 3.2 in [11] (setting [16]). The “24-h mortality Co-Toxicity Factor” value in series [3] (2 μg synergist + permethrin) came to 83; in series [3] (10 μg synergist + permethrin) it was 76; in [7] (2 μg synergist + methomyl), 23; in series [7] (10 μg synergist + methomyl), 28; in series [11] (setting [16]), 65.6. Besides, the “1-h% Mean Knockdown ± SEM, Synergist Alone” value is 5 ± 5% in series [3] (2 μg synergist per Ae. aegypti); 20 ± 5.8% in series [3] (setting [14]); 5 ± 5% in [7] (2 μg applied); 20 ± 5.8% in [7] (10 μg applied); 16 ± 11.8% in [11] (setting [15]). For the same molecule, the “24-h% Mean Mortality ± SEM, Synergist Alone” value in series [3] (2 μg synergist per Ae. aegypti) is reported as 5 ± 2.9%; in series [3] (setting [14]), 7.5 ± 2.5%; in [7] (2 μg applied), 5 ± 2.9%; in [7] (10 μg applied), 7.5 ± 2.5%; in series [11] (setting [15]) it was 0 ± 0%. Also, the “times as strong a synergist of permethrin as PBO” value in series [3] (24-h mortality, 2 μg synergist) came to 3.3. Moreover, the entries for the “LD10 (95% CI)” value in series [4] (topical) and in series [8] were 3300 (3100–3400) b ng/mg body weight and 3900 (1900–5200) b ng/mg body weight, respectively. In addition, the “LD50 (95% CI)” value in series [4] (topical) is 4300 (4200–4400) b ng/mg body weight; in series [8], 7300 (6700–7900) c ng/mg body weight. Moreover, the “LD90 (95% CI)” value is given as 5600 (5300–5900) b ng/mg body weight in [4] (topical) and 14,200 (11,000–26,600) c ng/mg body weight in series [8]. Also, the “times as toxic as fenchone” value in series [4] (at LD10) is on record as 2.7; in series [4] (at LD50), 3.1; in series [4] (at LD90), 3.6; in series [8] (at LD10) it was “about 1.9”; in [8] (at LD50), “about 1.5”; in series [8] (at LD90), “about 3.0”. The “times as toxic as menthone” value in [4] (at LD10), in series [4] (at LD50) and in [4] (at LD90) was 1.6 in each case. Besides, the “Dermal LD50” value in series [5] was >4000 (rt) mg compound per kg body weight. Moreover, the “inhibition of AChE” value in series [6] (at 1 mM, M. domestica preparation) turned out to be 11.1 ± 2.9%. Besides, the “48-h% Mean Mortality ± SEM, Synergist Alone” value in series [7] (2 μg applied) stood at 5 ± 2.9%; in series [7] (10 μg applied) it was 15 ± 2.9%. Besides, the “48-h mortality Co-Toxicity Factor” value is on record as 24 in series [7] (2 μg synergist + methomyl) and 8 in series [7] (10 μg synergist + methomyl). Further, the “times as effective a synergist of methomyl as PBO” value in series [7] (24-h mortality, 2 μg synergist) is on record as 1.7. The “Oral LD50” value in series [9] was 5400 (rt) mg compound per kg body weight. Moreover, in series [11] (24-h mortality), the “times as potent a synergist of permethrin as PBO” value was found to be 1.2.

Consider `CNC(=O)ON=C(C)SC` [Methomyl, methomyl, reference compound], for which the “Dermal LD50” value in series [12] is 5880 (rb) mg compound per kg body weight. Besides, the aerobic soil half-life entry in [2] is reported as “approximately 14 d”. The molecule also returned an LD50 in series [4] (topical, sufficient toxicity not observed at highest doses applied) greater than 100 ng. Further, the inhibition at 100 µM in [6] (at 100 µM, preparation not given, follows the M. domestica values, read-out: inhibition of AChE) amounted to 99.4 ± 0.1%. Besides, the half-maximal inhibitory concentration (IC50) in [13] is 2500 nM and 1700 nM. Also, in series [7] (methomyl 6 ng/mosquito), the “1-h% Mean Knockdown ± SEM, Methomyl Alone” value is 87.5 ± 9.5%; the “24-h% Mean Mortality ± SEM, Methomyl Alone” value came to 57.5 ± 25.3%; the “48-h% Mean Mortality ± SEM, Methomyl Alone” value was found to be 65 ± 21.8%. In [8], the “LD10 (95% CI)” value was 0.97 (0.27–1.6) a ng/mg body weight, the “LD50 (95% CI)” value is reported as 2.7 (1.6–4.3) b ng/mg body weight and the “LD90 (95% CI)” value is given as 7.55 (4.7–22.5) b ng/mg body weight. The “Oral LD50” value in series [9] is listed as 17–24 (rt) mg compound per kg body weight.

With `Cc1ccc(C(C)C)cc1O` [carvacrol], the LD50 in series [1] was 2000 to 3000 mg/kg.

For the molecule `CC1(C)C(C=C(Cl)Cl)C1C(=O)OCc1cccc(Oc2ccccc2)c1` (centres unmarked) [Permethrin, reference compound], the “Dermal LD50” value in [12] was 2000 (rb) mg compound per kg body weight. For the same molecule, in series [2], the aerobic soil half-life was 11.6 to 113 days. In addition, the “1-h% Mean Knockdown ± SEM, Permethrin Alone” value in series [3] (permethrin 0.6 ng/mosquito) is 76 ± 9.2% and 87.5 ± 6.3%; in [11] (permethrin 18 ng), 80 ± 7.3%. The “24-h% Mean Mortality ± SEM, Permethrin Alone” value is recorded as 27.5 ± 4.8% in series [3] (permethrin 0.6 ng/mosquito); 36 ± 6% in series [3] (permethrin 0.6 ng/mosquito, listed as permethrin); 58 ± 10.1% in [11] (permethrin 18 ng). Also, the “LD10 (95% CI)” value is reported as 0.46 (0.37–0.56) a ng/mg body weight in series [4] (topical) and 0.23 (0.12–0.33) a ng/mg body weight in series [8]. Also, the figures for the “LD50 (95% CI)” value in [4] (topical) and in series [8] were 0.84 (0.79–0.93) a ng/mg body weight and 0.58 (0.45–0.71) a ng/mg body weight, respectively. Moreover, the “LD90 (95% CI)” value in series [4] (topical) was 1.5 (1.4–1.7) a ng/mg body weight; in [8] it was 1.41 (1.08–2.24) a ng/mg body weight. In addition, the “Oral LD50” value in series [9] is given as 430–4000 (rt) mg compound per kg body weight.
